Here are results for 22 compounds from PubChem BioAssay AID330 (DTP/NCI, 2004).

Several values for one entry are separate records, joined by “and”; a condition that tells them apart may be missing. Identical values can stand only once. Inconclusive results and toxic doses are left out. Square brackets hold non-standard residues; d marks the D form. Peptide text beside a SMILES is read from it. * marks the point of attachment. Cbz = O=C(OCc1ccccc1)*; Nva = CCC[CH](N)C(=O)O

The assay has as its system P388 leukemia ip, CD2F1 mice, survival T/C. Kind of assay: NCI In Vivo Anticancer Drug Screen. Data for tumor model P388 Leukemia (intraperitoneal) in CD2F1 (CDF1) mice. To be noted: endpoint: median survival time, higher = longer survival. The essentials: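 Mice carrying the transplanted tumor received test compound or vehicle. Survival was recorded in each group, and the value is the treated-group measurement divided by that of the vehicle-treated control group.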

Where [1] appears, read: dose: 25.0 mg/kg/injection, schedule: Q01DX009 (ip), vehicle: Klucel (hydroxypropylcellulose) (HPC).
The mark [2] stands for this setting: dose: 50.0 mg/kg/injection, schedule: Q01DX009 (ip), vehicle: Klucel (hydroxypropylcellulose) (HPC).
Where [3] appears, read: dose: 100.0 mg/kg/injection, schedule: Q01DX009 (ip), vehicle: Klucel (hydroxypropylcellulose) (HPC).
Setting [4] is: dose: 200.0 mg/kg/injection, schedule: Q01DX009 (ip), vehicle: Klucel (hydroxypropylcellulose) (HPC).
The mark [5] stands for this setting: dose: 50.0 mg/kg/injection, schedule: Q01DX009 (ip), vehicle: saline.
The mark [6] stands for this setting: dose: 100.0 mg/kg/injection, schedule: Q01DX009 (ip), vehicle: saline.
[7] abbreviates: dose: 200.0 mg/kg/injection, schedule: Q01DX009 (ip), vehicle: saline.
Where [8] appears, read: dose: 50.0 mg/kg/injection, schedule: Q01DX005 (ip), vehicle: Klucel (hydroxypropylcellulose) (HPC).
Where [9] appears, read: dose: 100.0 mg/kg/injection, schedule: Q01DX005 (ip), vehicle: Klucel (hydroxypropylcellulose) (HPC).
[10] abbreviates: dose: 60.0 mg/kg/injection, schedule: Q01DX005 (ip), vehicle: saline with Tween-80.
Setting [11] is: dose: 240.0 mg/kg/injection, schedule: Q01DX005 (ip), vehicle: saline with Tween-80.
Where [12] appears, read: dose: 12.5 mg/kg/injection, schedule: Q01DX009 (ip), vehicle: Klucel (hydroxypropylcellulose) (HPC).

For `Nn1c(=O)[nH][nH]c1=O`, the T/C by setting is: under setting [1], 93 % of control; under setting [2], 104 % of control; under setting [3], 96 % of control; under setting [4], 93 % of control.
For `Oc1cccc2ccccc12`, the T/C by setting is: (dose: 25.0 mg/kg/injection, schedule: Q01DX005 (ip), vehicle: water) 100 % of control; (dose: 50.0 mg/kg/injection, schedule: Q01DX005 (ip), vehicle: water) 101 % of control; (dose: 100.0 mg/kg/injection, schedule: Q01DX005 (ip), vehicle: water) 111 % of control; (dose: 200.0 mg/kg/injection, schedule: Q01DX005 (ip), vehicle: water) 104 % of control; (dose: 400.0 mg/kg/injection, schedule: Q01DX005 (ip), vehicle: water) 93 % of control.
Consider `COCC(=O)c1ccc([N+](=O)[O-])cc1`, for which the T/C reads like this: under setting [5], 98 % of control; under setting [6], 103 % of control and 104 % of control; under setting [7], 105 % of control and 111 % of control.
Consider `CCN(CC)C(=O)CC(c1ccccc1)N(C)C` (stereo not given), for which the T/C is 98 % of control (dose: 60.0 mg/kg/injection, schedule: Q01DX005 (ip), vehicle: saline) and 87 % of control (dose: 120.0 mg/kg/injection, schedule: Q01DX005 (ip), vehicle: saline).
For the compound `CN1C(c2ccccc2)C2CSCC(C1c1ccccc1)C21NC(=O)NC1=O` (stereo not given), the T/C reads like this: (dose: 100.0 mg/kg/injection, schedule: Q01DX001 (ip), vehicle: saline with Tween-80) 104 % of control; (dose: 200.0 mg/kg/injection, schedule: Q01DX001 (ip), vehicle: saline with Tween-80) 100 % of control; (dose: 400.0 mg/kg/injection, schedule: Q01DX001 (ip), vehicle: saline with Tween-80) 97 % of control.
With `CCOC(=O)NCCCCl`, the T/C reads like this: under setting [5], 99 % of control; under setting [6], 101 % of control; under setting [7], 107 % of control.
In the case of `CCCCCN(CCCCC)C(C)C(O)c1ccc2cc(Cl)c3ccccc3c2c1` (stereo not given), the T/C was 99 % of control (dose: 50.0 mg/kg/injection, schedule: Q01DX005 (ip), vehicle: saline with Tween-80) and 101 % of control (dose: 100.0 mg/kg/injection, schedule: Q01DX005 (ip), vehicle: saline with Tween-80).
As to `CCCC(NC(=O)OCc1ccccc1)C(=O)NC(Cc1ccccc1)C(N)=O` (stereo not given) (Cbz-[Nva]-Phe-NH2; configuration not given here), the T/C is, setting by setting: under setting [8], 89 % of control; under setting [9], 97 % of control; (dose: 200.0 mg/kg/injection, schedule: Q01DX005 (ip), vehicle: Klucel (hydroxypropylcellulose) (HPC)) 88 % of control.
For the compound `Cc1cc2nc3cc(C)c(N)cc3[n+](-c3ccccc3)c2cc1N`, the T/C runs as follows: (dose: 6.25 mg/kg/injection, schedule: Q01DX005 (ip), vehicle: Klucel (hydroxypropylcellulose) (HPC)) 109 % of control; (dose: 12.5 mg/kg/injection, schedule: Q01DX005 (ip), vehicle: Klucel (hydroxypropylcellulose) (HPC)) 116 % of control.
Turning to `CCOC(=O)Cc1csc2nc(-c3ccccc3)cn12`, the T/C is, setting by setting: under setting [10], 115 % of control; (dose: 120.0 mg/kg/injection, schedule: Q01DX005 (ip), vehicle: saline with Tween-80) 104 % of control; under setting [11], 106 % of control.
In the case of `Cc1cccc(C)c1NC(=O)Nc1cccc(C#N)c1`, the T/C is, setting by setting: (dose: 15.0 mg/kg/injection, schedule: Q01DX005 (ip), vehicle: saline with Tween-80) 91 % of control; (dose: 30.0 mg/kg/injection, schedule: Q01DX005 (ip), vehicle: saline with Tween-80) 95 % of control; under setting [10], 91 % of control; under setting [11], 89 % of control.
Turning to `COCC1(C)CCCC2(C)C1CCC1(O)CCCCC12O` (stereo not given), the T/C is, setting by setting: (dose: 100.0 mg/kg/injection, schedule: Q01DX001 (ip), vehicle: saline) 100 % of control; (dose: 200.0 mg/kg/injection, schedule: Q01DX001 (ip), vehicle: saline) 100 % of control; (dose: 400.0 mg/kg/injection, schedule: Q01DX001 (ip), vehicle: saline) 108 % of control.
For `COCC12CCC(OC)C34C5CC6(O)C(OC)CC(OC(C)=O)(C5C6OC(=O)c5ccccc5)C(C(OC)C13)C4N(C)C2` (stereo not given), the T/C reads like this: (dose: 0.31 mg/kg/injection, schedule: Q01DX009 (ip), vehicle: saline) 106 % of control; (dose: 0.62 mg/kg/injection, schedule: Q01DX009 (ip), vehicle: saline) 101 % of control; (dose: 1.25 mg/kg/injection, schedule: Q01DX009 (ip), vehicle: saline) 110 % of control; (dose: 2.5 mg/kg/injection, schedule: Q01DX009 (ip), vehicle: saline) 102 % of control; (dose: 5.0 mg/kg/injection, schedule: Q01DX009 (ip), vehicle: saline) 108 % of control.
Turning to `C=C(C)C1CC=C(C)C(CCC2C(=C)CCC3C(C)(C)C(OC4OC(CO)C(O)C(O)C4NC(C)=O)CCC23C)C1(C)CCC(=O)O` (stereo not given), the T/C is, setting by setting: (dose: 35.75 mg/kg/injection, schedule: Q01DX005 (ip), vehicle: Klucel (hydroxypropylcellulose) (HPC)) 91 % of control; (dose: 71.5 mg/kg/injection, schedule: Q01DX005 (ip), vehicle: Klucel (hydroxypropylcellulose) (HPC)) 87 % of control; (dose: 143.0 mg/kg/injection, schedule: Q01DX005 (ip), vehicle: Klucel (hydroxypropylcellulose) (HPC)) 97 % of control.
Take `C=C1C(=O)OC2C3[C@@]4(C)O[C@H]4[C@H]4O[C@@]34[C@](C)(O)CC(OC(C)=O)[C@@H]12` (stereo not given in full): the T/C was 104 % of control (dose: 1687.5 micrograms/kg/injection, schedule: Q01DX005 (ip), vehicle: Klucel (hydroxypropylcellulose) (HPC)); 108 % of control (dose: 3375.0 micrograms/kg/injection, schedule: Q01DX005 (ip), vehicle: Klucel (hydroxypropylcellulose) (HPC)); 100 % of control (dose: 6750.0 micrograms/kg/injection, schedule: Q01DX005 (ip), vehicle: Klucel (hydroxypropylcellulose) (HPC)); 106 % of control (dose: 13500.0 micrograms/kg/injection, schedule: Q01DX005 (ip), vehicle: Klucel (hydroxypropylcellulose) (HPC)).
`O=S(=O)(O)O.[NH-]C1CCCC1[NH-].[Pt+2]` (stereo not given): the T/C reads like this: (dose: 6.25 mg/kg/injection, schedule: Q04DX002 (ip), vehicle: saline) 177 % of control and 195 % of control; (dose: 12.5 mg/kg/injection, schedule: Q04DX002 (ip), vehicle: saline) 180 % of control and 202 % of control; (dose: 12.5 mg/kg/injection, schedule: Q04DX002 (ip), vehicle: suspension in saline) 191 % of control; (dose: 25.0 mg/kg/injection, schedule: Q04DX002 (ip), vehicle: saline) 198 % of control and 194 % of control.
Turning to `O=C(Nc1nnc(C(F)(F)F)s1)c1c(F)cccc1F`, the T/C by setting is: (dose: 12.5 mg/kg/injection, schedule: Q01DX009 (ip), vehicle: saline with Tween-80) 104 % of control; (dose: 25.0 mg/kg/injection, schedule: Q01DX009 (ip), vehicle: saline with Tween-80) 104 % of control; (dose: 50.0 mg/kg/injection, schedule: Q01DX009 (ip), vehicle: saline with Tween-80) 99 % of control.
As for `NC(c1ccccc1)c1cccs1` (stereo not given), the T/C runs as follows: under setting [8], 100 % of control; under setting [9], 105 % of control.
Turning to `CCCCCCCCCCCCC[N+](C)([O-])CCCCCC[N+](C)([O-])CCCCCCCCCCCCC` (stereo not given), the T/C was 100 % of control under setting [12]; 93 % of control under setting [1]; 101 % of control and 93 % of control under setting [2].
Consider `Clc1ccc(CN2Cc3ccc4cccnc4c3OC2c2ccccn2)cc1Cl` (stereo not given), for which the T/C was 100 % of control under setting [2], 101 % of control under setting [3] and 101 % of control under setting [4].
As to `CCOc1cc2c(cc1Cc1ccc(OC)cc1)OCO2`, the T/C runs as follows: (dose: 50.0 mg/kg/injection, schedule: Q01DX005 (ip), vehicle: distilled water + alcohol) 108 % of control; (dose: 100.0 mg/kg/injection, schedule: Q01DX005 (ip), vehicle: distilled water + alcohol) 95 % of control; (dose: 200.0 mg/kg/injection, schedule: Q01DX005 (ip), vehicle: distilled water + alcohol) 109 % of control.
Take `CN(C)c1cc(N(C)C)c2ccccc2n1`: the T/C under setting [12] was 102 % of control, the T/C under setting [1] is 106 % of control and the T/C under setting [3] is 97 % of control.
